Test results from patent US20250228239A1, “MOLECULES HAVING PESTICIDAL UTILITY, AND INTERMEDIATES, COMPOSITIONS, AND PROCESSES, RELATED THERETO” (priority 2024, published 2025).
Where two headings read alike, the source gives them in different places.

Key:
[1] = tested on: Beet Armyworm (Spodoptera exigua, LAPHEG); test: Bioassays on Beet Armyworm (BAW), 128-well diet tray assay; format: in vivo; details: Spodoptera exigua
Procedure, shortened: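 Diet-overlay assay: 50 μg/cm^2 compound applied in 90:10 acetone-water to artificial diet, allowed to dry, then infested with 1–5 L2 larvae/well; 8 wells/compound; covered, vented; 25° C., 14:10 L:D, 5–7 d; % mortality per well, averaged.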

[2] = tested on: Cabbage Looper (Trichoplusia ni, TRIPNI); test: Bioassays on Cabbage Looper (CL), 128-well diet tray assay; format: in vivo; details: Trichoplusia ni
Procedure, shortened: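 Diet tray, 2nd instar, 1–5 larvae/well; 50 μg/cm^2 compound surface-applied (acetone:water 90:10), dried; 8 wells/treatment; 25° C, 14:10 L:D, 5–7 d; % mortality, mean of 8 wells.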

[3] = Beet Armyworm, rating class, read-out: BAW
[4] = Cabbage Looper, rating class, read-out: CL

SMILES | pest or weed control at 50 µg/cm2 [1, 3] [%] | pest or weed control at 50 µg/cm2 [2, 4] [%] | other results
CC(=O)Nc1cc(NC(=O)c2cc(NC(=O)[C@H]3[C@H](c4cc(Cl)c(Cl)c(Cl)c4)C3(Cl)Cl)ccc2Cl)c(F)cc1F [F1517, N-(5-Acetamido-2,4-difluorophenyl)-2-chloro-5-((1R,3R)-2,2-dichloro-3-(3,4,5-trichlorophenyl)cyclopropane-1-carboxamido)benzamide] | 50 to 100 | 50 to 100 | 
CCO[C@H](C)C(=O)Nc1c(F)ccc(NC(=O)c2cc(NC(=O)[C@H]3[C@H](c4ccc(Cl)c(Cl)c4)C3(Cl)Cl)ccc2Cl)c1F [F1734, 2-Chloro-5-((1R,3R)-2,2-dichloro-3-(3,4-dichlorophenyl)cyclopropane-1-carboxamido)-N-(3-((R)-2-ethoxypropanamido)-2,4-difluorophenyl)benzamide] | 50 to 100 | 50 to 100 | 
O=C(Nc1c(F)ccc(NC(=O)C(F)(F)C(F)F)c1F)c1cc(NC(=O)[C@H]2[C@H](c3ccc(F)c(C(F)(F)F)c3)C2(Cl)Cl)ccc1Cl [F1564, 2-Chloro-5-((1R,3R)-2,2-dichloro-3-(4-fluoro-3-(trifluoromethyl)phenyl)cyclopropane-1-carboxamido)-N-(2,6-difluoro-3-(2,2,3,3-tetrafluoropropanamido)phenyl)benzamide] | 50 to 100 | 50 to 100 | 
O=C(Nc1ccc(F)c(NC(=O)C2(COC(F)(F)F)CC2)c1F)c1cc(NC(=O)[C@H]2[C@H](c3ccc(F)c(C(F)(F)F)c3)C2(Cl)Cl)ccc1Cl [F1821, 2-Chloro-5-((1R,3R)-2,2-dichloro-3-(4-fluoro-3-(trifluoromethyl)phenyl)cyclopropane-1-carboxamido)-N-(2,4-difluoro-3-(1-((trifluoromethoxy)methyl)cyclopropane-1-carboxamido)phenyl)benzamide] |  |  | pest or weed control at 50 µg/cm2 ([1]; Beet Armyworm, Table ABC / ABC-DP rating, read-out: BAW rating): 50 to 100%; pest or weed control at 50 µg/cm2 ([2]; Cabbage Looper, Table ABC / ABC-DP rating, read-out: CL rating): 50 to 100%
Nc1cc(F)c(NC(=O)c2cc(NC(=O)[C@H]3[C@H](c4ccc(F)c(Cl)c4)C3(Cl)Cl)ccc2Cl)c(F)c1 [F1030, N-(4-Amino-2,6-difluorophenyl)-2-chloro-5-((1R,3R)-2,2-dichloro-3-(3-chloro-4-fluorophenyl)cyclopropane-1-carboxamido)benzamide] |  |  | pest or weed control at 50 µg/cm2 ([1]; Table ABC: Biological Results, species BAW, read-out: BAW): 50 to 100%; pest or weed control at 50 µg/cm2 ([2]; Table ABC: Biological Results, species CL, read-out: CL): 50 to 100%
O=C(Nc1cc(NC(=O)C(F)F)c(F)cc1F)c1cc(NC(=O)[C@H]2[C@H](c3cc(Cl)cc(Cl)c3)C2(Cl)Cl)cc(F)c1Cl [F1408, 2-Chloro-5-((1R,3R)-2,2-dichloro-3-(3,5-dichlorophenyl)cyclopropane-1-carboxamido)-N-(5-(2,2-difluoroacetamido)-2,4-difluorophenyl)-3-fluorobenzamide] | 50 to 100 | 50 to 100 | 
O=C(Nc1ccc(F)c(NC(=O)C(F)(F)F)c1F)c1cc(NC(=O)[C@H]2[C@H](c3ccc(F)c(C(F)(F)F)c3)C2(Cl)Cl)cc(F)c1F [F1572, 5-((1R,3R)-2,2-Dichloro-3-(4-fluoro-3-(trifluoromethyl)phenyl)cyclopropane-1-carboxamido)-N-(2,4-difluoro-3-(2,2,2-trifluoroacetamido)phenyl)-2,3-difluorobenzamide] | 50 to 100 | 50 to 100 | 
Nc1cc(NC(=O)c2cc(NC(=O)[C@H]3[C@H](c4ccc(F)c(Cl)c4)C3(Cl)Cl)cc(F)c2Cl)c(F)cc1F [F1395, N-(5-Amino-2,4-difluorophenyl)-2-chloro-5-((1R,3R)-2,2-dichloro-3-(3-chloro-4-fluorophenyl)cyclopropane-1-carboxamido)-3-fluorobenzamide] | 50 to 100 | 50 to 100 | 
